According to patent US7585833B2, “Malodor covering perfumery” (Givaudan Fragrances Corporation, priority 2005, dated 2009):

Columns and labels:
[1] = cited from earlier work; for ODT (ppb): odor detection threshold, Table 3
[2] = Stability and malodor coverage evaluation of odorants in permanent hair color crème (10% ammonia); design: key to malodor coverage rating 1 Week RT / malodor coverage rating 1 Week Oven / malodor coverage rating 6 Weeks RT / malodor coverage rating 6 Weeks Oven / malodor coverage rating 2 Weeks RT / malodor coverage rating 2 Weeks Oven / malodor coverage rating 3 Weeks RT / malodor coverage rating 3 Weeks Oven / malodor coverage rating 4 Weeks RT / malodor coverage rating 4 Weeks Oven / malodor coverage rating 5 Weeks RT / malodor coverage rating 5 Weeks Oven: E: excellent; VG: very good; G: good coverage; key to odorant performance 1 Week RT / odorant performance 1 Week Oven / odorant performance 2 Weeks RT / odorant performance 2 Weeks Oven / odorant performance 3 Weeks RT / odorant performance 3 Weeks Oven / odorant performance 4 Weeks RT / odorant performance 4 Weeks Oven: E=excellent; VG=very good; G=good; F=fair; P=poor; conditions: for odorant performance 1 Week Oven / odorant performance 1 Week RT / odorant performance 2 Weeks Oven / odorant performance 2 Weeks RT / odorant performance 3 Weeks Oven / odorant performance 3 Weeks RT / odorant performance 4 Weeks Oven / odorant performance 4 Weeks RT: odorant at 0.2% in dye less permanent hair color crème (10% ammonia hydroxide); for odorant performance 1 Week Oven / odorant performance 2 Weeks Oven / odorant performance 3 Weeks Oven / odorant performance 4 Weeks Oven: oven temperature; for odorant performance 1 Week RT / odorant performance 2 Weeks RT / odorant performance 3 Weeks RT / odorant performance 4 Weeks RT / malodor coverage rating 1 Week RT / malodor coverage rating 2 Weeks RT / malodor coverage rating 3 Weeks RT / malodor coverage rating 4 Weeks RT / malodor coverage rating 5 Weeks RT / malodor coverage rating 6 Weeks RT: room temperature; for stability observation in the formulation: odorant at 0.2% in permanent hair color crème (10% ammonia hydroxide), remark beside the raw material; for malodor coverage rating 1 Week Oven / malodor coverage rating 1 Week RT / malodor coverage rating 2 Weeks Oven / malodor coverage rating 2 Weeks RT / malodor coverage rating 3 Weeks Oven / malodor coverage rating 3 Weeks RT / malodor coverage rating 4 Weeks Oven / malodor coverage rating 4 Weeks RT / malodor coverage rating 5 Weeks Oven / malodor coverage rating 5 Weeks RT / malodor coverage rating 6 Weeks Oven / malodor coverage rating 6 Weeks RT: 10% ammonia formulation; for malodor coverage rating 1 Week Oven / malodor coverage rating 2 Weeks Oven / malodor coverage rating 3 Weeks Oven / malodor coverage rating 4 Weeks Oven / malodor coverage rating 5 Weeks Oven / malodor coverage rating 6 Weeks Oven: oven at 37° C.
Source text: The marks E, VG, G stand for excellent, very good and good coverage and are part of a 5 scale rating system. […] Odorants were put up at 0.2% in the formulation, and odorants were subjected to 6 week stability testing at room temperature (R.T.) and […] oven temperature. […] G=good, F=fair; P=poor).

| SMILES | ODT (ppb) [1] | odorant performance 1 Week Oven [2] | odorant performance 1 Week RT [2] | odorant performance 2 Weeks Oven [2] | odorant performance 2 Weeks RT [2] | odorant performance 3 Weeks Oven [2] | odorant performance 3 Weeks RT [2] | odorant performance 4 Weeks Oven [2] | odorant performance 4 Weeks RT [2] | further results |
| --- | --- | --- | --- | --- | --- | --- | --- | --- | --- | --- |
| CC/C=C\CCOC(=O)OC [cis-3-hexenyl methyl carbonate] | less than 50 ppb |  |  |  |  |  |  |  |  |  |
| CCCCCCC(C=O)=Cc1ccccc1 [Hexyl cinnamic aldehyde] |  | G | G | G | G | G | G | G | G | stability observation in the formulation [2]: HEXYL CINNAMIC ALDEHYDE (cloudy) |
| CCCCCCOC [methyl hexyl ether] | less than 50 ppb |  |  |  |  |  |  |  |  |  |
| C=CC(C)(O)CCC=C(C)C (stereo not shown) [LINALOOL SYNTHETIC, LINALOOL] |  | G | G | G | G | G | G | G | G |  |
| CC(C)CC1CC(C)(O)CCO1 (stereo not shown) [FLOROL] |  | F | F | P | P | P | P | P | P |  |
| CC(C)=CCCC(C)C=O (stereo not shown) [2,6-dimethyl-5-heptenal] | less than 50 ppb |  |  |  |  |  |  |  |  |  |
| CC1COCc2cc3c(cc21)C(C)(C)C(C)C3(C)C (stereo not shown) [Galaxolide, 1,3,4,6,7,8-Hexahydro-4,6,6,7,8,8-hexamethylcyclopenta-γ-2-benzopyran] |  |  |  |  |  |  |  |  |  | malodor coverage rating 1 Week Oven [2]: E; malodor coverage rating 1 Week RT [2]: E; malodor coverage rating 2 Weeks Oven [2]: VG; malodor coverage rating 2 Weeks RT [2]: VG; malodor coverage rating 3 Weeks Oven [2]: G; malodor coverage rating 3 Weeks RT [2]: G; malodor coverage rating 4 Weeks Oven [2]: G; malodor coverage rating 4 Weeks RT [2]: G; malodor coverage rating 5 Weeks Oven [2]: G; malodor coverage rating 5 Weeks RT [2]: G; malodor coverage rating 6 Weeks Oven [2]: G; malodor coverage rating 6 Weeks RT [2]: G |
| CC/C=C\CCOC(C)=O [cis-3-hexenyl acetate] |  | G | G | G | G | F | F | F | F |  |
| CCCCCC(=O)CC [3-octanone] | less than 50 ppb |  |  |  |  |  |  |  |  |  |
| CC=CC(=O)C1=C(C)CCCC1(C)C [β-damascone, β-1-(2,6,6-trimethyl-1-cyclohexen-1-yl)-2-buten-1-one] |  | VG | E | VG | E | G | VG | G | VG | malodor coverage rating 1 Week Oven [2]: VG; malodor coverage rating 1 Week RT [2]: E; malodor coverage rating 2 Weeks Oven [2]: VG; malodor coverage rating 2 Weeks RT [2]: E; malodor coverage rating 3 Weeks Oven [2]: G; malodor coverage rating 3 Weeks RT [2]: VG; malodor coverage rating 4 Weeks Oven [2]: G; malodor coverage rating 4 Weeks RT [2]: VG; malodor coverage rating 5 Weeks Oven [2]: G; malodor coverage rating 5 Weeks RT [2]: VG; malodor coverage rating 6 Weeks Oven [2]: G; malodor coverage rating 6 Weeks RT [2]: G; odor detection threshold value in water ([1]; in water): 0.09 parts per billion |
| CCOC(=O)CC(C)C [ethyl 3-methylbutanoate] | less than 50 ppb |  |  |  |  |  |  |  |  |  |
| CCC(C)COC(C)=O (stereo not drawn) [β-methyl butyl acetate] | less than 50 ppb |  |  |  |  |  |  |  |  |  |
| CCOC(=O)CC [ethyl propionate] | less than 50 ppb |  |  |  |  |  |  |  |  |  |
| CC(C=O)Cc1ccc(C(C)(C)C)cc1 (stereo not drawn) [Lilial, p-t-Butyl-α-methylhydrocinnamic aldehyde] |  | G | G | G | G | G | G | G | G |  |
| CCCCCOC(C)=O [pentyl acetate] | less than 50 ppb |  |  |  |  |  |  |  |  |  |
| CCCCCCOC(C)=O [hexyl acetate] | less than 50 ppb |  |  |  |  |  |  |  |  |  |

| SMILES | ODT (ppb) [1] | odorant performance 1 Week Oven [2] | odorant performance 1 Week RT [2] | odorant performance 2 Weeks Oven [2] | odorant performance 2 Weeks RT [2] | odorant performance 3 Weeks Oven [2] | odorant performance 3 Weeks RT [2] | odorant performance 4 Weeks Oven [2] | odorant performance 4 Weeks RT [2] | further results |
| --- | --- | --- | --- | --- | --- | --- | --- | --- | --- | --- |
| CCOC(=O)C(C)CC (stereo not shown) [ethyl-2-methylbutyrate] | less than 50 ppb |  |  |  |  |  |  |  |  |  |
| C=CCOC(=O)COCCC(C)C [ALLYL AMYL GLYCOLATE] |  | G | G | F | G | F | G | F | G |  |
| CCOC(=O)CC(C)=O [ETHYL ACETOACETATE] |  | F | F | F | F | F | F | F | F | stability observation in the formulation [2]: ETHYL ACETOACETATE (discolors in oven) |
| CCCC(C)C(=O)OCC (stereo not shown) [ethyl 2-methylpentanoate] | less than 50 ppb |  |  |  |  |  |  |  |  |  |
| COC(=O)C=C1CCCC1 [methyl cyclopentylidene acetate] | less than 50 ppb |  |  |  |  |  |  |  |  |  |
| CCCOC(=O)CCC [propyl butyrate] | less than 50 ppb |  |  |  |  |  |  |  |  |  |
| CCC/C=C/C=O [TRANS-2-HEXENAL @ 10% DPG, TRANS-2-HEXENAL] |  | F | G | F | G | F | G | F | F |  |
| CC/C=C\CCC=O [cis-4-heptenal] | less than 50 ppb |  |  |  |  |  |  |  |  |  |
| CC12CCC(CC1)C(C)(C)O2 [1,3,3-trimethyl-2-oxabicyclo[2.2.2]octane] | less than 50 ppb |  |  |  |  |  |  |  |  |  |
| CC1CC=CCCCCCCCCCC(=O)C1 (stereo not shown) [MUSCENONE @ 10% DPG] |  | F | F | F | F | F | F | F | F |  |
| CCOC(=O)CC1(C)OCCO1 [ethyl 2-methyl-1,3-dioxolane-2-acetate] | less than 50 ppb |  |  |  |  |  |  |  |  |  |
| O=C(OCc1ccccc1)c1ccccc1O [BENZYL SALICYLATE] |  | G | G | G | G | F | F | F | F |  |
| CCCC(=O)OCC [ethyl butyrate] | less than 50 ppb |  |  |  |  |  |  |  |  |  |
| CCCCCC(=O)OCC [ethyl hexanoate] | less than 50 ppb |  |  |  |  |  |  |  |  |  |
| CCCCCC=O [hexanal] | less than 50 ppb |  |  |  |  |  |  |  |  |  |
| CCc1ccc(CC(C)(C)C=O)cc1 [FLORALOZONE] |  | G | G | G | G | G | G | G | G |  |
